From PMC11061149, “Protein mimetic 2D FAST rescues alpha synuclein aggregation mediated early and post disease Parkinson’s phenotypes” (Nature Communications, 2024) come the findings set out here.

The test system of experiment [1] is UA196 worms. Kind of experiment: ROS level in UA196 worms (H2DCFDA dye). The experiment is classed as in vivo, C. elegans. As to the method: The worm strains were bleached at the same time and the eggs were incubated on PLATE 1. On day two, the worms were divided into two batches. One half of the worms were transferred (using M9 buffer) on PLATE 2 (without ligand) and the second half of the worms were transferred to PLATE 3 (with ligand). The concentration of the ligands was 50 µM as described in the main manuscript. On day four, the ligand (10–50 μM in M9 buffer with 0.1%-0.5% DMSO, v/v) was spotted again atop the PLATE 3 at 20 °C. The worms were incubated on PLATE 2 or PLATE 3 up to day eight at 20 °C in an incubator with constant humidity. On day eight, the worms were transferred into 1.7 mL microcentrifuge tubes using M9 buffer (1 mL) and washed with M9 buffer (1 mL and three times) by centrifugation for 2 min at 700xg and 20 °C. Subsequently, a total of 100 worms/well were transferred to a Costar 96-well black plate (Corning, Kennebunk, ME) containing 100 μL solution, including M9 buffer (89 μL), worm solution (10 μL and 100 worms), and 2’,7’-dichlorofluorescein diacetate (H2DCFDA) dye (1 μL, 50 μM, stock solution = 5 mM in cell culture grade DMSO, 99% pure). As a control, 99 μL of M9 buffer and 1 μL of 5 mM H2DCFDA reaction solution was placed in the wells. Subsequently, the Costar 96-well plate was gently shaken for 30 sec at 20 °C and the fluorescence intensity was measured (λex = 485 nm and λem = 530 nm) at multiple time points (0 to 120 min) using the Infinite M200 Pro Plate Reader (Tecan, Männedorf, Switzerland)[65],[89].
For confocal imaging, the same UA196 worms (in the absence and presence of ligands) used for the quantification of ROS, were transferred from the 96-well plate into PLATE 2, air-dried into the sterile laminar flow hood. The worms ( ~ 10 worms) were transferred to a cover slide containing an anesthetic (40 mM sodium azide) and mounted on a glass microscope slide containing 2% agarose pads for the confocal imaging as described in the previous sections. This experiment consisted of three biological replicates and each biological replicate consisted of three technical replicates.

The test system of experiment [2] is UA196 worms. The experiment in a line: Chemotaxis assay of UA196 worms. The experiment is classed as in vivo, C. elegans. Conditions: 50 µM ligand, day 10, E. coli attractant vs ethanol repellent. The protocol: For chemotaxis assay, the Chemotaxis (CTX) media plates (2% Agar, 5 mM KH2PO4, 1 mM CaCl2, 1 mM MgSO4, 75 µM FUDR), referred to as PLATE 7, and CTX buffer (5 mM KH2PO4, 1 mM CaCl2, and 1 mM MgSO4) were prepared using previous protocols[24],[78],[85],[86]. The PLATE 7 (without ligand) were treated with ligand (50 µM, stock conc. = 10 mM in DMSO) that was dissolved in CTX buffer (total volume = 300 µL) and was spotted atop the CTX media plates at 20 °C, referred to as PLATE 8. For CTX assay, we prepared another plate referred to as PLATE 9, which was PLATE 7 divided into four equal quadrants and designated as A and C (diagonally opposite), B and D (diagonally opposite). […] The experiment on the WMicroTracker ARENA plate reader (Phylumtech, Santa Fe, Argentina) started within 1 h of the transfer of the worms at 20 °C. […] On day 3, a total of 50 worms were transferred to the center of the PLATE 9 using CTX buffer ( ~20 µL) and the number of worms were counted under an Olympus microscope (SZ-6145, Waltham, MA). […] The worm activity was monitored using the WMicroTracker ARENA plate reader (Phylumtech, Santa Fe, Argentina) at 20 °C for 2 h. […] For day 10, 50 worms (N2 or UA196) from PLATE 7 (without ligand) or PLATE 8 (with 50 µM ligand) were transferred to PLATE 9 using CTX buffer ( ~ 20 µL) and the number of worms were counted under an Olympus microscope (SZ-6145, Waltham, MA). […]

For `Cc1ccc(NC(=O)c2ccc(NC(=O)c3ccc([N+](=O)[O-])c(NCCc4c[nH]c5ccccc45)n3)c(NCC3CCCCC3)n2)c(OCC(=O)O)n1` [NS132], in the experiment with UA196 worms [1] (50 µM ligand on day two and four, day eight), the “intracellular ROS level in UA196 worms, in words” value is given as “low”. Further, the “ROS dye signal, Average” value is on record as 169.8 in the experiment with UA196 worms [1] (UA196+NS132, Time 0 min); 210.6 in the experiment on UA196 worms [1] (UA196+NS132, Time 60 min); 301.6 with UA196 worms [1] (UA196+NS132, Time 120 min). For the same molecule, the “behavioral deficits / chemotaxis index of UA196 worms, in words” value in the experiment on UA196 worms [2] is recorded as “able to rescue behavioral deficits”.
